In patent US11918565B1, “Treatment of post-operative pain via sciatic nerve block with sustained-release liposomal anesthetic compositions” (Pacira Pharmaceuticals, Inc., priority 2022, dated 2024):
Structures can show the parent of a compound that is named as a salt.

Tests used:
Format in all cases: in vivo, human
[1] = tested on: sciatic nerve (motor block) in subjects undergoing bunionectomy; assay: Pharmacodynamics: onset and duration of motor block (foot movement), clinical trial #1 Part A
Experimental: (§1) Clinical Study #1 was a Phase 3, multicenter, randomized, double-blind, active-controlled study in 180 subjects undergoing bunionectomy. Subjects received a sciatic (in the popliteal fossa) nerve block with a single dose of either EXPAREL 266 mg (EXP266), EXPAREL 133 mg (EXP133), or 0.25% bupivacaine HCl (50 mg; BUP50). The study was conducted in two parts (Part A and Part B). Part A was to be completed and analyzed before enrollment in Part B was initiated. Part A was a 3-arm cohort with 66 subjects undergoing bunionectomy to obtain information on pharmacokinetics (PK), pharmacodynamics (PD), efficacy, and safety. Subjects were randomized (1:1:1) to the EXP266, EXP133, and BUP50 treatment arms. Part B was a 2-arm cohort with 119 subjects undergoing bunionectomy to evaluate the efficacy and safety of EXPAREL compared with bupivacaine HCl. The dose of the EXPAREL arm in Part B was determined based on the interim analysis of the Part A cohort results.
(§2) On the day of surgery, subjects received an ultrasound-guided sciatic (in the popliteal fossa) nerve block with one of the following treatments: • EXP266 arm: subjects randomized to this treatment arm received 20 mL (266 mg) EXPAREL mixed with 10 mL saline (Part A only; per interim analysis was not selected for Part B) • EXP133 arm: subjects randomized to this treatment arm received 10 mL (133 mg) EXPAREL mixed with 20 mL saline (Part A and B) • BUP50 arm: subjects randomized to this treatment arm received 20 mL (50 mg) 0.25% bupivacaine HCl mixed with 10 mL saline (Part A and B)
(§3) Efficacy assessments included pain intensity scores focused on the operative foot using the Numeric Rating Scale (NRS), total postsurgical opioid consumption in OMED, time to first opioid consumption post-surgery, and percentage of opioid-free patients through 96 hours, and worst and average NRS pain intensity scores at 24 h, 48 h, 72 h, and 96 h from end of surgery. Additionally, blood samples for pharmacokinetic (PK) analysis (area under the curve [AUC], maximum plasma concentration [Cmax], time of maximum plasma concentration [Tmax], including early and late Cmax and Tmax (EXP133-ADMIX arm only), apparent terminal elimination half-life [t1/2el], apparent clearance [CL/F], and apparent volume of distribution [Vd/F]). Pharmacodynamic (PD) assessment data, including median time to onset of sensory block and motor block, and median duration of sensory and motor block were collected.
(§4) Pharmacodynamic endpoints included: onset of sensory block, offset of sensory block, duration of sensory block, onset of motor block, offset of motor block, and duration of motor block.

[2] = tested on: subjects undergoing bunionectomy; assay: Postsurgical opioid consumption, opioid-free subjects and time to first opioid rescue, clinical trial #1
Experimental: Clinical Study #1 was a Phase 3, multicenter, randomized, double-blind, active-controlled study in 180 subjects undergoing bunionectomy. Subjects received a sciatic (in the popliteal fossa) nerve block with a single dose of either […] 266 mg ([…] 133 mg (EXP133), or 0.25% bupivacaine HCl (50 mg; BUP50). The study was conducted in two parts (Part A and Part B). Part A was to be completed and analyzed before enrollment in Part B was initiated. Part A was a 3-arm cohort with 66 subjects undergoing bunionectomy to obtain information on pharmacokinetics (PK), pharmacodynamics (PD), efficacy, and safety. Subjects were randomized (1:1:1) to the EXP266, EXP133, and BUP50 treatment arms. Part B was a 2-arm cohort with 119 subjects undergoing bunionectomy to evaluate the efficacy and safety of […] compared with bupivacaine HCl. The dose of the […] arm in Part B was determined based on the interim analysis of the Part A cohort results. On the day of surgery, subjects received an ultrasound-guided sciatic (in the popliteal fossa) nerve block with one of the following treatments: • EXP266 arm: subjects randomized to this treatment arm received 20 mL (266 mg) […] mixed with 10 mL saline (Part A only; per interim analysis was not selected for Part B) • EXP133 arm: subjects randomized to this treatment arm received 10 mL (133 mg) […] mixed with 20 mL saline (Part A and B) • BUP50 arm: subjects randomized to this treatment arm received 20 mL (50 mg) 0.25% bupivacaine HCl mixed with 10 mL saline (Part A and B) Postsurgical pain for breakthrough pain. An unscheduled pain intensity assessment using the NRS (measured as “On a scale from 0 to 10, where 0 equals no pain and 10 equals the worst possible pain, how much pain are you experiencing in your operative foot right now?”) was to be completed immediately prior to administration of any breakthrough pain medication up to 96 h post-surgery. Medications were administered PRN; opioids were not to be given on a pre-determined schedule. […] All postsurgical analgesics administered, were to be recorded through hospital discharge. […]

[3] = tested on: sciatic nerve (sensory block) in subjects undergoing bunionectomy; assay: Pharmacodynamics: onset and duration of sensory block, clinical trial #1 Part A
Experimental: as §1, §2, §3, §4

CCCCN1CCCCC1C(=O)Nc1c(C)cccc1C (stereo not shown) [BUP50, bupivacaine HCl]
subjects without foot movement at the first time point with ≥50% ([1]; 1 h post-dose for EXP266, 2 h post-dose for EXP133 and BUP50): 54.5% | subjects who still did not have complete foot movement ([1]; 84 h post-dose): 18.2% | subjects with motor block onset observed ([1]; human, in vivo): 40.9% | first time point at which foot movement was not present in ≥50% of subjects ([1]; post-dose): 2 h | estimate of the proportion of opioid-free subjects ([2]; 0 to 96 h post-surgery, EXP266 Part A, EXP133 and BUP50 Part A+B): 9.8% | proportion of subjects who received opioid breakthrough medication ([2]; EXP266 Part A, EXP133 and BUP50 Part A+B): 90.2% | median time to first rescue medication ([2]; post-surgery, Kaplan-Meier): 20.68 h | subjects without sensation at the first time point with ≥50% ([3]; 30 min post-dose for BUP50, 2 h for EXP266 and EXP133): 59.1% | subjects who still did not have complete sensation ([3]; 60 h post-dose): all BUP50 subjects had regained sensation | median duration of sensory block ([3]; human, in vivo): 29.10 h | median time to sensory block ([3]; human, in vivo): 0.46 h | subjects with sensory block onset observed ([3]; human, in vivo): 63.6% | first time point at which sensation was not present in ≥50% of subjects ([3]; post-dose): 30 min
